The source of these data is paper PMC8929122, “Application of a Combined Peptidomics and In Silico Approach for the Identification of Novel Dipeptidyl Peptidase-IV-Inhibitory Peptides in In Vitro Digested Pinto Bean Protein Extract” (Current Issues in Molecular Biology, 2021).

The target of one assay is T1, rat intestinal DPP-IV (Rattus norvegicus, UniProt P14740).
T1 construct: 10 μL of rat intestinal DPP-IV (0.1 U/mL in the assay); from tissue; host or cells: rat intestine
In words: In vitro DPP-IV inhibitory activity of synthetic peptides. Format: biochemical. Conditions: rat intestinal DPP-IV 0.1 U/mL; 0.1 mol/L Tris-HCl pH 7.0; 20 min pre-incubation at 37 °C; glycine-proline-p-nitroanilide 6.4 mmol/L (5 μL); 20 min reaction at 37 °C; absorbance 405 nm; mean ± SD, three replicates; read-out: IC50 value for DPP-IV inhibition. Here is the method: Selected synthetic peptides (Bio-Fab Research, Rome, Italy) were then tested for their DPP-IV-inhibitory activity as reported in Tagliazucchi et al.. Briefly, 145 μL of 0.1 mol/L Tris-HCl buffer (pH 7.0) were mixed with 10 μL of rat intestinal DPP-IV (0.1 U/mL in the assay) and 40 μL of synthetic peptides at different concentrations, in a 96-well plate. The reaction was started after 20 min of pre-incubation at 37 °C by the addition of 5 μL of 6.4 mmol/L glycine-proline-p-nitroanilide. After a further 20 min of reaction at 37 °C, the amount of released p-nitroanilide was measured by reading the absorbance at 405 nm in a microplate reader. Results were expressed as IC50 values (peptide concentration that inhibit the 50% of the enzymatic activity) by plotting the peptide concentration (base-10 logarithm) as a function of the enzyme inhibition percentage.
All data are reported as mean ± standard deviation (SD) for three replicates for each prepared sample. GraphPad Prism 6.0 (GraphPad Software, San Diego, CA, USA) was used for univariate analysis of variance (ANOVA) with Tukey post-hoc test. The differences were considered significant when p < 0.05.

The test system of assay [1] is Dipeptidyl peptidase IV (DPP-IV). Conditions: Parmigiano Reggiano peptides, previous study; cited from earlier work. From the text: Table 1 Peptides with previously reported biological activity identified in in vitro-digested Pinto bean protein extract. | column: Bioactivity ^1 || The described approach was applied in a previous study on Parmigiano Reggiano samples allowing the selection of 6 candidates to be tested in vitro starting from a pool of 415 peptides identified by peptidomics techniques. […] The high inhibitory potency of SAPI was probably due to the combined presence of an A residue in second position and a P residue in third position. […] The PepSite2 server was used to predict the possible interaction between SAPI and the DPP-IV binding sites by analyzing the enzyme active site residues closer to the peptide amino ...

Peptide text beside a SMILES is read from it.

T1 sequence (P14740 whole entry): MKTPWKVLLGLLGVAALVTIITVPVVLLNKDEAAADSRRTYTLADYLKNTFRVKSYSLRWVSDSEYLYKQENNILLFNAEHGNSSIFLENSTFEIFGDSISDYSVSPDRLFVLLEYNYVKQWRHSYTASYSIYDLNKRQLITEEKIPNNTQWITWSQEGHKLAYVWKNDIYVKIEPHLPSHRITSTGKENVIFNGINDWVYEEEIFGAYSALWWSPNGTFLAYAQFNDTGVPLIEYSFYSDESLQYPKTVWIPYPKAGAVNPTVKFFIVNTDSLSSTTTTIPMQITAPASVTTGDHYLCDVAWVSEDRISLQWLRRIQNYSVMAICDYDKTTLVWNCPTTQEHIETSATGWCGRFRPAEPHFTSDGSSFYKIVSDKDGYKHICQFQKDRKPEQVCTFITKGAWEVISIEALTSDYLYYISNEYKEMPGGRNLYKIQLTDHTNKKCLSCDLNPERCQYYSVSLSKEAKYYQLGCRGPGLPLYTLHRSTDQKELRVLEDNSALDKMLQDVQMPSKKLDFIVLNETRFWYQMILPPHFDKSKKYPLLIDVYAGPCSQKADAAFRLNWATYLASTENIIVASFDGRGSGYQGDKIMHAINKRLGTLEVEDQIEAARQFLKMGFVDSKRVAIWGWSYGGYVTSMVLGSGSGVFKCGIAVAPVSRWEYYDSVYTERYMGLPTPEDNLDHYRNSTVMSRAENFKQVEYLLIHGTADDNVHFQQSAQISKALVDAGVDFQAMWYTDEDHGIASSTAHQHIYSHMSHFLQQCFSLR

As for `CC(C)[C@H](NC(=O)[C@@H](N)Cc1ccccc1)C(=O)N1CCC[C@H]1C(=O)N[C@@H](Cc1c[nH]cn1)C(=O)O` [FVPH] (H-FVPH-OH), the IC50 at rat intestinal DPP-IV came to 480.6 ± 2.1 µM.
Same read-out and setting: then `CC[C@H](C)[C@H](NC(=O)[C@@H](N)CO)C(=O)N1CCC[C@H]1C(=O)N[C@@H](CCCNC(=N)N)C(=O)O` [SIPR] (H-SIPR-OH), with 189 ± 1.5 µM.
APFPE: the “DPP-IV inhibition (in words)” value in assay [1] is “novel potent DPP-IV inhibitor”.
For `CC[C@H](C)[C@H](NC(=O)[C@@H]1CCCN1C(=O)[C@H](C)NC(=O)[C@@H](N)CO)C(=O)O` [SAPI] (H-SAPI-OH), the half-inhibitory concentration (IC50) at rat intestinal DPP-IV worked out at 57.7 µM.

A word on the IC50: it is the concentration needed to halve the response being measured.
